Measurements reported in article PMC8085067, “The dimer-monomer equilibrium of SARS-CoV-2 main protease is affected by small molecule inhibitors” (Scientific Reports, 2021).
“Also recorded” adds a separate entry of the source.

Molecular target: SARS-CoV-2 M^pro dimer-monomer equilibrium (Severe acute respiratory syndrome coronavirus 2, UniProt P0DTD1)
Experiment: SAXS analysis of M^pro dimer-monomer equilibrium in presence of inhibitors
Conditions: for effect on M^pro dimer-monomer equilibrium (in words): SAXS; for αCp (rate of change of dissociation heat capacity with inhibitor concentration) / αS (rate of change of dissociation entropy with inhibitor concentration) / αG (rate of change of dissociation Gibbs free energy with inhibitor concentration): global SAXS fit, M^pro 30 μM; for αG (rate of change of dissociation Gibbs free energy with inhibitor concentration): inhibitor 30 and 60 μM, 30-45 °C

## CCNC(=O)c1noc(-c2c(F)c(F)c(NCCN(CCNc3c(F)c(F)c(-c4nc(C(=O)NCC)no4)c(F)c3F)CCNc3c(F)c(F)c(-c4nc(C(=O)NCC)no4)c(F)c3F)c(F)c2F)n1 [Inhibitor 7, 5,5’,5”-(((nitrilotris(ethane-2,1-diyl))tris(azanediyl))tris(2,3,5,6-tetrafluorobenzene-4,1-diyl))tris(N-ethyl-1,2,4-oxadiazole-3-carboxamide)]
  effect on M^pro dimer-monomer equilibrium (in words): mostly able to increase the dissociation equilibrium constant
  αCp (rate of change of dissociation heat capacity with inhibitor concentration): -3±3 10^-2 μM^-1
  αS (rate of change of dissociation entropy with inhibitor concentration): -5±2 10^-2 μM^-1
  αG (rate of change of dissociation Gibbs free energy with inhibitor concentration): -0.19±0.07 10^-2 μM^-1

## OCCN(CCOc1c(F)c(F)c(-c2nc(-c3ccncc3)no2)c(F)c1F)CCOc1c(F)c(F)c(-c2nc(-c3ccncc3)no2)c(F)c1F [Inhibitor 3]
  effect on M^pro dimer-monomer equilibrium (in words): do not affect in a significant way the dimer-monomer equilibrium; also recorded: does not alter the native dissociation equilibrium
  αCp (rate of change of dissociation heat capacity with inhibitor concentration): 0±4 10^-2 μM^-1
  αS (rate of change of dissociation entropy with inhibitor concentration): -8±4 10^-2 μM^-1
  αG (rate of change of dissociation Gibbs free energy with inhibitor concentration): 0.00±0.08 10^-2 μM^-1

## Fc1c(F)c(N2CCOCCOCCOCCOCCOCC2)c(F)c(F)c1-c1nc(-c2ccccc2)no1 [Inhibitor 4, 16-(2,3,5,6-tetrafluoro-4-(3-phenyl-1,2,4-oxadiazol-5-yl)phenyl)-1,4,7,10,13-pentaoxa-16-azacyclooctadecane]
  effect on M^pro dimer-monomer equilibrium (in words): do not affect in a significant way the dimer-monomer equilibrium; also recorded: very weak stabilizing effect of the dimer
  αCp (rate of change of dissociation heat capacity with inhibitor concentration): -2±2 10^-2 μM^-1
  αS (rate of change of dissociation entropy with inhibitor concentration): -1±5 10^-2 μM^-1
  αG (rate of change of dissociation Gibbs free energy with inhibitor concentration): 0.0±0.1 10^-2 μM^-1
